The text below walks through data of PubChem BioAssay (NCI).

A word on the TGI: it is the concentration giving total growth inhibition. Higher therefore signals lower sensitivity of the cells.

The structures appear in SMILES notation. Several values for one entry are separate records, joined by “and”; a condition that tells them apart may be missing. Equal entries are not always repeated.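 How tested: cells in 96-well plates exposed to compound for 48 hours at five concentrations. TGI: concentration producing complete growth inhibition.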 Some results are limits rather than exact numbers.

Holding throughout (assay): DTP human tumour cell line panel, 48 h
For test [1], the system named is COLO 205 colon.
Test [2] has as its system DU-145 prostate.
Test [3] deals with HCT-15 colon.
Test [4] deals with HOP-92 NSCLC.
In test [5] the test system is HS 578T breast.
Test [6] concerns K-562 leukemia.
The test system of test [7] is MALME-3M melanoma.
For test [8], the system named is MCF7 breast.
Test [9] deals with MDA-N.
Test [10] concerns MOLT-4 leukemia.
Test [11] deals with OVCAR-3 ovarian.
Test [12] has as its system OVCAR-4 ovarian.
The test system of test [13] is RPMI-8226 leukemia.
The test system of test [14] is SF-295 CNS.
The test system of test [15] is SN12C renal.
Test [16] deals with SNB-19 CNS.
The subject of test [17] is SNB-75 CNS.
In test [18] the test system is SR leukemia.
Test [19] has as its system TK-10 renal.
Test [20] deals with UO-31 renal.

With `O=C1NC(N/N=C\C(O)C(O)C(O)C(O)CO)=N/C1=C/c1ccc(Cl)cc1` (stereo not drawn), the TGI in [1], in test [2], in test [3], in [4], in test [5] and in test [6] was over 100 µM in each case. The TGI was over 100 µM in test [7]; over 100 µM in [8]; over 100 µM in [9]; over 100 µM in test [10]; over 100 µM in [11]; > 100 µM and 50.7 µM in test [12]. The TGI in [13], in test [14], in test [15], in test [16], in [17] and in [18] was over 100 µM in each case. For the same molecule, the TGI in test [19] and in [20] was over 100 µM each time.
Regarding `CC(C)=CCC/C(C)=C/CC/C(C)=C/CC(CO)N(C)CC/C=C(\C)CCC=C(C)C` (stereo not drawn), the TGI in test [1] came out at 6.85 µM; in test [2], 23.7 µM; in test [3], 14.8 µM; in [4], 8.85 µM; in [5], 16.7 µM; in test [6] it was 3.7 µM. Further, the TGI in [7] worked out at 8.75 µM; in test [8], 4.8 µM; in test [9], 12.4 µM; in [10], 6.69 µM; in test [11], 27.8 µM; in test [12], 22.4 µM. Also, the TGI was 10.1 µM in test [13]; 19.9 µM in [14]; 17.4 µM in [15]; 21.5 µM in [16]; 25 µM in test [17]; 4.8 µM in test [18]. Also, the TGI came out at 22.7 µM in test [19] and 17.9 µM in [20].
Consider `CC1=C(/C=C/C(C)=C/C=C/C(C)=C/C(=O)OC2CC(n3cc(F)c(=O)[nH]c3=O)OC2CO)C(C)(C)CCC1` (stereo not drawn), for which the TGI is 25.8 µM in test [1]; 13.4 µM in test [2]; 27.6 µM in test [3]; 36.7 µM in test [4]; over 56 µM in test [5]; 14 µM in [6]. Further, the total growth inhibition concentration (TGI) in test [7] was determined as 31.9 µM; in [8], 19.5 µM; in test [9] it was 23.2 µM; in test [10], 20.2 µM; in test [11], 22.5 µM; in test [12], 21.5 µM. Moreover, the TGI is 15.8 µM in test [13]; 14.3 µM in test [14]; 32 µM in test [15]; 23.6 µM in [16]; 18.6 µM in test [17]; over 47.2 µM in [18]. Besides, the results for the TGI in test [19] and in test [20] were 25.8 µM and 14.9 µM, respectively.
For the molecule `CC1CN=C(N(C(=O)Nc2ccccc2)c2ccc(Cl)c(Cl)c2)S1` (stereo not drawn), the TGI was over 10 µM in test [1]; over 100 µM in [2]; over 100 µM in test [3]; 52.3 µM in test [4]; over 100 µM in test [5]; over 10 µM in test [6]. Also, the TGI is over 100 µM in test [7]; over 100 µM in test [8]; over 10 µM in test [9]; over 10 µM in [10]; over 10 µM in test [11]; over 100 µM in [12]. The TGI is over 100 µM in [13]; over 100 µM in [14]; 56.6 µM in test [15]; over 100 µM in test [16]; over 100 µM in [17]; over 100 µM in [18]. Further, the TGI in test [19] and in test [20] was over 100 µM throughout.
For `CCOC(=O)/C=C(/C(=O)OCC)n1cnc2c(=O)[nH]c(NC(C)=O)nc21`, the concentration for total growth inhibition (TGI) in [1], in [2], in [3], in [4], in test [5] and in [6] was over 100 µM each time. The TGI in test [7], in test [8], in [9], in test [10], in test [11] and in test [12] was over 100 µM each time. Further, the TGI in [13], in test [14], in [15], in [16], in test [17] and in test [18] was over 100 µM in each case. For the same molecule, the TGI in [19] and in test [20] was over 100 µM throughout.
Turning to `O=C(O)CCSC(CC1(c2ccc(Cl)cc2)NC(=O)CCS1)c1ccccc1` (stereo not drawn), the TGI in [1] is over 60.6 µM; in [2], over 53.8 µM; in test [3], 32.1 µM; in test [4], 62.2 µM; in test [5], 33.4 µM; in [6], over 100 µM. Also, the TGI in [7] was 41.6 µM; in [8] it was over 55.3 µM; in test [9], 31.8 µM; in test [10], over 100 µM; in test [11], 41.5 µM; in test [12] it was 29.3 µM. Besides, the TGI was over 100 µM in test [13]; 43.2 µM in test [14]; 33.4 µM in test [15]; over 56.1 µM in [16]; 32.3 µM in [17]; over 100 µM in [18]. The TGI in [19] was 36 µM; in test [20], over 54.8 µM.
Regarding `COC(=O)/C=C\C(C#N)(C#N)N=Cc1cc(Br)cs1`, the concentration for total growth inhibition (TGI) in test [1] was 3.99 µM; in [2], 19.1 µM; in test [3], 6.37 µM; in test [4], 4.73 µM; in test [5], 45.1 µM; in [6], over 100 µM. Further, the TGI was 3.47 µM in [7]; 4.49 µM in test [8]; 6.62 µM in [9]; over 100 µM in [10]; 17.4 µM in test [11]; 27.1 µM in test [12]. Besides, the TGI in [13] was over 71.3 µM; in test [14], 31.8 µM; in test [15] it was 7.64 µM; in test [16], 32.5 µM; in [17], 29.7 µM; in [18], over 100 µM. Also, the TGI in [19] was found to be 8.45 µM; in [20], 5.01 µM.
In the case of `CCOC(=O)C(CCN1CCC2(CC1)C(=O)N(C)CN2c1ccccc1)C(=O)OCC`, the TGI in test [1], in test [2], in test [3], in [4], in [5] and in [6] was over 100 µM each time. Besides, the TGI in test [7], in test [8], in [9], in test [10], in test [11] and in [12] was over 100 µM each time. In addition, the TGI in test [13], in test [14], in [15], in test [16], in test [17] and in [18] was over 100 µM throughout. In addition, the TGI in test [19] and in [20] was over 100 µM each time.
As to `Cn1c2c(c3ccccc31)CCN1C(=O)CN(C(=O)C3CCCCC3)CC21` (stereo not drawn), the TGI in [1], in [2], in test [3], in [4], in test [5] and in test [6] was over 100 µM each time. Further, the TGI in test [7], in test [8], in [9], in test [10], in test [11] and in test [12] was over 100 µM throughout. The TGI in test [13], in test [14], in test [15], in test [16], in test [17] and in [18] was over 100 µM in each case. The TGI in test [19] and in test [20] was over 100 µM each time.
For `CCOC(=O)c1nc2cc(F)c(N3CCOCC3)cc2[nH]c1=O`, the TGI in test [1], in test [2], in test [3], in test [4], in [5] and in test [6] was over 100 µM in each case. The TGI in [7], in [8], in test [9], in [10], in [11] and in [12] was over 100 µM each time. In addition, the TGI in test [13], in [14], in test [15], in test [16], in test [17] and in [18] was over 100 µM each time. Also, the TGI in test [19] and in [20] was over 100 µM in each case.
On to `C=C1CC/C=C(\C)CCC[C@H](C)[C@@H](O)[C@@H]2OC(=O)C(=C)[C@@H]2C[C@H]1O`, for which the TGI in [1] was 29.9 µM; in [2], 17.8 µM; in [3], 13.1 µM; in test [4] it was 7.22 µM; in test [5], 33.9 µM; in [6], over 38.8 µM. Also, the TGI is 22.1 µM in test [7]; over 42.7 µM in [8]; 35.9 µM in [9]; 9.62 µM in test [10]; 22.6 µM in test [11]; 51.7 µM in test [12]. In addition, the TGI in [13] is over 21.9 µM; in [14], 32.9 µM; in test [15], 42 µM; in [16] it was 28.7 µM; in test [17] it was 24.7 µM; in [18] it was over 100 µM. Besides, the TGI in test [19] was 4.5 µM; in test [20], 19.2 µM.
As to `NCC(=O)Nc1ccc(S(=O)(=O)O)c2cc(S(=O)(=O)O)cc(S(=O)(=O)O)c12`, the TGI in [1], in [2], in [3], in test [4], in test [5] and in [6] was over 100 µM in each case. The total growth inhibition concentration (TGI) in test [7], in [8], in test [9], in [10], in test [11] and in test [12] was over 100 µM in each case. In addition, the TGI in test [13], in test [14], in test [15], in test [16], in test [17] and in test [18] was over 100 µM in each case. For the same molecule, the TGI in [19] and in test [20] was over 100 µM in each case.
Regarding `Cc1ncc([N+](=O)[O-])n1CCNCCCCn1ccnc1[N+](=O)[O-]`, the TGI in test [1], in test [2], in test [3], in [4], in [5] and in test [6] was over 100 µM each time. Moreover, the TGI in test [7], in test [8], in test [9], in test [10], in [11] and in [12] was over 100 µM in each case. Also, the TGI in test [13], in test [14], in test [15], in [17], in test [18] and in test [19] was over 100 µM throughout. For the same molecule, in [20], the concentration for total growth inhibition (TGI) is over 100 µM.
Take `COc1ccc(/C=C2\c3cc(OC)c(OC)cc3CCN2C(=O)c2ccccc2)cc1OC`: the TGI in test [1], in [2], in [3], in test [4], in test [5] and in test [6] was over 100 µM in each case. Further, the TGI in test [7] was 71.1 µM; in [8], over 100 µM; in test [9], 65.2 µM; in test [10], 80.6 µM; in test [11], over 100 µM; in test [13], over 100 µM. Also, the concentration for total growth inhibition (TGI) in test [14], in test [15], in test [16], in [17], in [18] and in [19] was over 100 µM each time. The molecule further returned a TGI in test [20] of over 100 µM.
